Active and inactive are the calls of the source.
Experiments:
T-cell = assay: inhibitors of CD8+ T cell–vesicle binding, dose response, mouse 2C CD8+ T cells, flow cytometry (AID 485284); assay type: functional
[1] = molecular target: Sphingosine 1-phosphate receptor 4 (Homo sapiens, UniProt O95977); assay: Late-stage fluorescence dose response cell-based assay to identify agonists of the Sphingosine 1-Phosphate Receptor 4 (S1P4): purchased compounds EC50. [Related pubchem assays (depositor defined):AID1509, AID1523, AID1563, AID1686, AID1701, AID1801]; assay type: functional
[2] = molecular target: T1, Dual specificity protein phosphatase 6 (Rattus norvegicus, UniProt Q64346); assay type: functional;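 note: confirmatory in vitro dose-response testing of MKP-3 inhibition; recombinant His-tagged MKP-3 made in E. coli BL21 with OMFP substrate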
T1 sequence (Q64346 whole entry): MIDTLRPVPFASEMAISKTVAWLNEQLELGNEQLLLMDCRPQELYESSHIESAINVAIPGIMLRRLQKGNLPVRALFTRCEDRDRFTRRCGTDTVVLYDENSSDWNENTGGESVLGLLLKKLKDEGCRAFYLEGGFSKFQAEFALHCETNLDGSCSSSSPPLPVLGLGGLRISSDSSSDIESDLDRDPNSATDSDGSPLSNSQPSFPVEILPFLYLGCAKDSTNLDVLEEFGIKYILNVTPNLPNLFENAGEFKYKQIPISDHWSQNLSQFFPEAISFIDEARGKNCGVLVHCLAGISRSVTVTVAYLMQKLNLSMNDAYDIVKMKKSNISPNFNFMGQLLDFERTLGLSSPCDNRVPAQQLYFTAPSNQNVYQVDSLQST

[3] = molecular target: Dual specificity protein phosphatase 3 (Homo sapiens, UniProt P51452); assay: SAR VHR1 Fluorescent Assay for In Vitro dose response studies Set 2. [Related pubchem assays (depositor defined):AID1654, AID1661, AID1878]; assay type: functional
NADPH oxidase 1 = molecular target: T2, NADPH oxidase 1 (Homo sapiens, UniProt Q9Y5S8); assay: Luminescence-based cell-based dose response assay to identify inhibitors of NADPH oxidase 1 (NOX1).; assay type: functional
T2 sequence (Q9Y5S8 whole entry): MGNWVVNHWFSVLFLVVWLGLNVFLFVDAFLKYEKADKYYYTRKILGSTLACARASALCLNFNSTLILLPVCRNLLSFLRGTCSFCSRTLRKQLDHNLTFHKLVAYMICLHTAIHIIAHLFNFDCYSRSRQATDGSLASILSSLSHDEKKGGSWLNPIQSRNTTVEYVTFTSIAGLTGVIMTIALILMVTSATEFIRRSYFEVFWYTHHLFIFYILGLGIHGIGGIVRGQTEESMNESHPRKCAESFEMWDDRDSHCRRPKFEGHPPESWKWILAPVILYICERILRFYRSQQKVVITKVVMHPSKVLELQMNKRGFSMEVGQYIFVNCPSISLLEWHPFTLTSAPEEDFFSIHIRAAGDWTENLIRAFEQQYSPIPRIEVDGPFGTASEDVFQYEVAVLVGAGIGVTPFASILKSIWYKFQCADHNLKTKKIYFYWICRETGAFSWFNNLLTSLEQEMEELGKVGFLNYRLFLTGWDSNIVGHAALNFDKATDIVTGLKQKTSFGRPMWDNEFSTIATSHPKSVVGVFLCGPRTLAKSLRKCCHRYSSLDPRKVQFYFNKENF

Mucolipin-3 = molecular target: T3, Mucolipin-3 (Homo sapiens, UniProt Q8TDD5); assay: Fluorescence counterscreen assay for […] agonists: dose response cell-based high-throughput screening assay to identify agonists of the transient receptor potential channel ML3 (TRPML3). [Related pubchem assays: 1424, 1448 ]; assay type: functional
T3 sequence (Q8TDD5 whole entry): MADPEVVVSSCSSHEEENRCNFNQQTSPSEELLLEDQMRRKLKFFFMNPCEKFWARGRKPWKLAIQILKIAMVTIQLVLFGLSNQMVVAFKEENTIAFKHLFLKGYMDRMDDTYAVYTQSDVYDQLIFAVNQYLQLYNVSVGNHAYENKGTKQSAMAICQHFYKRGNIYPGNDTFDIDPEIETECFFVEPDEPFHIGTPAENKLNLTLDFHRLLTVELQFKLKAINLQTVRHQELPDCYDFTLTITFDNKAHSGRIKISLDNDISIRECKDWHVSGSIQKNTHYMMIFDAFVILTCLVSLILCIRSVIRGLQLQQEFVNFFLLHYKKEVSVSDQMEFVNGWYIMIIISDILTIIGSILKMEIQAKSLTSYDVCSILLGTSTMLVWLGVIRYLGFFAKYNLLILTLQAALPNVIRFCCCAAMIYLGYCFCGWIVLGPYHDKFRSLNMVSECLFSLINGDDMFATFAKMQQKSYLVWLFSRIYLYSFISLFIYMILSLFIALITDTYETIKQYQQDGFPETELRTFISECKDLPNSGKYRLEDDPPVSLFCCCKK

[4] = molecular target: FAD-linked sulfhydryl oxidase ALR (Homo sapiens, UniProt P55789); assay: inhibitors of human ALR sulfhydryl oxidase, dose response, biochemical, H2O2 detection, luminescence, cherry-pick (AID 493248)
[5] = molecular target: Induced myeloid leukemia cell differentiation protein Mcl-1 (Homo sapiens, UniProt Q07820); assay type: functional
Ion channel NompC = Ion channel NompC (Danio rerio, UniProt Q7T1G6); assay: Dose response cell-based high-throughput screening assay for agonists of the transient receptor potential channel N1 (TRPN1). [Related pubchem assays (depositor defined):AID1424, AID1448]; assay type: functional
Nonstructural protein 1 = Nonstructural protein 1 (Influenza A virus, UniProt Q194T2); assay type: functional, Influenza A virus (A/California/07/2009(H1N1))
Chain of Nonstructural protein 1 (Q194T2 whole entry): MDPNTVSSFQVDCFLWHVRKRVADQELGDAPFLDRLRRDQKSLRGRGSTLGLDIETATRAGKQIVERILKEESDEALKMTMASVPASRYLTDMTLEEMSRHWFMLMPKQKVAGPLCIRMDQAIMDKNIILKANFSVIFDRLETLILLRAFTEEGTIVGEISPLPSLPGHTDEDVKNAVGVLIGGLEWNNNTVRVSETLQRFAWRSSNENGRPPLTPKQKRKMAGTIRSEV

Chain of Induced myeloid leukemia cell differentiation protein Mcl-1 (Q07820 whole entry): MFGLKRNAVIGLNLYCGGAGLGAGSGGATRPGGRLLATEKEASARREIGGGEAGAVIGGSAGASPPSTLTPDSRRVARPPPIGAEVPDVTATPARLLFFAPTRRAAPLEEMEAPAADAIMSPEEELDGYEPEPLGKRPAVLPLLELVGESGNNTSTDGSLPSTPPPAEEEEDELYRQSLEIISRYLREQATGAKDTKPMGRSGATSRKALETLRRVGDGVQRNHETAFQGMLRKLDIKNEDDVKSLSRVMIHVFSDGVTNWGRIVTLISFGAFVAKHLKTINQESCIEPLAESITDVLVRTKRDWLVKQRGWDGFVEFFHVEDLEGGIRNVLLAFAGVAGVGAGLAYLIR
Chain of FAD-linked sulfhydryl oxidase ALR (P55789 whole entry): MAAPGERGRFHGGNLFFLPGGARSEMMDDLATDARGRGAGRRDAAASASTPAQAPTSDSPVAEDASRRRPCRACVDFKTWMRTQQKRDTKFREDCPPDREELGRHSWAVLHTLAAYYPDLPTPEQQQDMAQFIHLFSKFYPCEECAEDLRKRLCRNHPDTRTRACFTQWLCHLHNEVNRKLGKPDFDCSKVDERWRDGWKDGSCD
Chain of Sphingosine 1-phosphate receptor 4 (O95977 whole entry): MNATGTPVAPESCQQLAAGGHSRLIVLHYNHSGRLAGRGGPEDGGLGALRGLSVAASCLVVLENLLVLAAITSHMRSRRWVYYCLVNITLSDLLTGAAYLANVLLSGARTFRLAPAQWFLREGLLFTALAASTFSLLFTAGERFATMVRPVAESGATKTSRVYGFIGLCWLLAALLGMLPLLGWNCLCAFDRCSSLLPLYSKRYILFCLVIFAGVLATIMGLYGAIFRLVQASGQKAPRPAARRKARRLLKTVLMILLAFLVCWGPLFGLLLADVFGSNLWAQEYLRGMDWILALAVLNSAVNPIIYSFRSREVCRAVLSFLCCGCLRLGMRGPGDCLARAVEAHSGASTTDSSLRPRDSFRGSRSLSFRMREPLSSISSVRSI
Chain of Ion channel NompC (Q7T1G6 whole entry): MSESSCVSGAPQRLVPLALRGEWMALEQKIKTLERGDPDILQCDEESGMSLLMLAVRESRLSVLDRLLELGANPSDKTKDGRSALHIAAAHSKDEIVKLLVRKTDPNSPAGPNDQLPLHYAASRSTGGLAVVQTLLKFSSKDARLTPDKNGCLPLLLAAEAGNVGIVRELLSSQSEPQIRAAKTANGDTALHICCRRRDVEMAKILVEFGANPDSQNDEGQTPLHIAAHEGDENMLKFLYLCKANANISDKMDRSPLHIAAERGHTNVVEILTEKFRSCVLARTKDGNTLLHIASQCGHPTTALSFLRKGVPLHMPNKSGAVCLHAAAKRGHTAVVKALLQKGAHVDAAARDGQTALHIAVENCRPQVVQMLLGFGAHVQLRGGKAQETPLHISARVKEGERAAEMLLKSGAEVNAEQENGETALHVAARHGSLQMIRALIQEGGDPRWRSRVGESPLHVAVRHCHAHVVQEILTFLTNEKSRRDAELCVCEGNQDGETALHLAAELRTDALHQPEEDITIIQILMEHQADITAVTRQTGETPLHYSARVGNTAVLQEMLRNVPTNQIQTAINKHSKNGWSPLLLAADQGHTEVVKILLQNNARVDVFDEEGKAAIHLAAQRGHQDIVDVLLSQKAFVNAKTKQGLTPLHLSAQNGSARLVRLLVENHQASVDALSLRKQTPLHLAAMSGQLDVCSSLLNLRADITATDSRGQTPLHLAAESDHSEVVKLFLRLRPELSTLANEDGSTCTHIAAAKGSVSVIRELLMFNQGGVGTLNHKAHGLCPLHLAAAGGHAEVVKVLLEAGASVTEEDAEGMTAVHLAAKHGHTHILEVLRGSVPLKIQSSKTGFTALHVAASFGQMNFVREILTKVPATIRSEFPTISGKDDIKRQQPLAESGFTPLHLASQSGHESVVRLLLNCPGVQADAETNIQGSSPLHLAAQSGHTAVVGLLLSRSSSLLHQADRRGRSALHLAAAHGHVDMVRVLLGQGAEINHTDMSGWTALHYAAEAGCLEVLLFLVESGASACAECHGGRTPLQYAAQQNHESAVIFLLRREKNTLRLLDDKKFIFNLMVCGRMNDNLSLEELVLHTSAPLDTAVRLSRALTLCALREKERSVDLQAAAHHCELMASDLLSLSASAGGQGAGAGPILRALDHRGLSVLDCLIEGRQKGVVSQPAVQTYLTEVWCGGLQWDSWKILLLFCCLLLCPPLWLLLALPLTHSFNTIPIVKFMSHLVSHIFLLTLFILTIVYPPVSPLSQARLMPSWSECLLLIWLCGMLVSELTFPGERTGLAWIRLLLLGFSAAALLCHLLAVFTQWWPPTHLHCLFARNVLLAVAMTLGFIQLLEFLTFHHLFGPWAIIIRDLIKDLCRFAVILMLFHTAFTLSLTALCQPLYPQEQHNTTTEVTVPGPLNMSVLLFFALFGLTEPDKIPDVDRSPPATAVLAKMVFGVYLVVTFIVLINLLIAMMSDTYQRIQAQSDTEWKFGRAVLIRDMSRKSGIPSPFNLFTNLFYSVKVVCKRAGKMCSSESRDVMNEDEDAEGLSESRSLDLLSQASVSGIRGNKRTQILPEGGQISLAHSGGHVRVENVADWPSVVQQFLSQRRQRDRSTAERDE
Chain of Dual specificity protein phosphatase 3 (P51452 whole entry): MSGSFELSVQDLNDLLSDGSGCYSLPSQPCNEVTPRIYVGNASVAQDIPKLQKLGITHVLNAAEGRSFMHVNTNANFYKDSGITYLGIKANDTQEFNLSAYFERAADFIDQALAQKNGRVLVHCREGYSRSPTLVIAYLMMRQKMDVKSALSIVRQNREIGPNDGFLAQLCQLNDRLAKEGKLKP

## COc1ccc([C@H]2CC(=O)C=C(c3ccc(OC)nc3)C2)cc1
T-cell
  EC50: 3.19 µM (active)

## Cc1ccc(CNC(=O)C(C)OC(=O)c2c(C)nn(Cc3ccccc3)c2Cl)cc1 (stereo not given)
[1]
  EC50: > 50 µM (inactive)

## Cc1ccc(C(=O)NC2CCSc3ccccc32)cc1S(N)(=O)=O (stereo not given)
[2]
  IC50: > 100 µM (inactive)
[3]
  IC50: > 100 µM (inactive)

## CN(C)c1ccc(NC(=O)Nc2ccc3snnc3c2)cc1
NADPH oxidase 1
  IC50: 0.187 µM (active)
Mucolipin-3
  EC50: > 29.9 µM (not active)
[4]
  AC50: 0.204 µM (active)
[5]
  IC50: 0.455 µM (active)
Ion channel NompC
  EC50: > 29.9 µM (inactive)
Nonstructural protein 1
  IC50: > 100 µM (active)
